Values of other authors, collected in patent publication EP0005248A2, “Tetrapeptidehydrazide derivatives and process for their preparation” (Takeda Chemical Industries, Ltd., priority 1978, dated 1979).

Conditions: for analgesic action: intravenous administration

Row | Substance | morphinomimetic action (directly administered by the intracerebral route) | analgesic action
1 | H=ryr -Gly-Gly-Phe-Met-OH | display a morphinemimetic action | do not have an analgesic action
2 | β-Endorphin (YGGFMTSEKSQTPLVTLFKNAIIKNAYKKGE; Beta-endorphin; UniProt P01189 237-267, looked up) | – | profound analgesic effects
